Source: US12479849B2, “EGFR inhibitors for the treatment of cancer” (Hoffmann-La Roche Inc., priority 2019, dated 2025)
pIC50: −log10 of the molar value.

Biological target: T1, EGFR TMLRCS (Homo sapiens, UniProt P00533, C797S/L858R/T790M)
T1 construct: host or cells: BaF3-TMLRCS (Ba/F3 cells, kept under puromycin selection)
Test: HTRF Phospho EGFR TMLRCS Assay (Cellular)
Assay type: cell-based
Conditions: BaF3-TMLRCS cell line, 4 hours incubation, Phospho-EGFR HTRF readout
Outline: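 BaF3 cells expressing EGFR L858R/T790M/C797S, 20000/well, treated with compound in dose response for 4 h at 37 °C, 5% CO2. After lysis, phospho-EGFR detected by HTRF with cryptate and d2 antibodies over 4 h at room temperature. Signal taken as 665/616 nm ratio ×10000, normalized.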

T1 sequence (P00533 25-1210 T790M/C797S/L858R): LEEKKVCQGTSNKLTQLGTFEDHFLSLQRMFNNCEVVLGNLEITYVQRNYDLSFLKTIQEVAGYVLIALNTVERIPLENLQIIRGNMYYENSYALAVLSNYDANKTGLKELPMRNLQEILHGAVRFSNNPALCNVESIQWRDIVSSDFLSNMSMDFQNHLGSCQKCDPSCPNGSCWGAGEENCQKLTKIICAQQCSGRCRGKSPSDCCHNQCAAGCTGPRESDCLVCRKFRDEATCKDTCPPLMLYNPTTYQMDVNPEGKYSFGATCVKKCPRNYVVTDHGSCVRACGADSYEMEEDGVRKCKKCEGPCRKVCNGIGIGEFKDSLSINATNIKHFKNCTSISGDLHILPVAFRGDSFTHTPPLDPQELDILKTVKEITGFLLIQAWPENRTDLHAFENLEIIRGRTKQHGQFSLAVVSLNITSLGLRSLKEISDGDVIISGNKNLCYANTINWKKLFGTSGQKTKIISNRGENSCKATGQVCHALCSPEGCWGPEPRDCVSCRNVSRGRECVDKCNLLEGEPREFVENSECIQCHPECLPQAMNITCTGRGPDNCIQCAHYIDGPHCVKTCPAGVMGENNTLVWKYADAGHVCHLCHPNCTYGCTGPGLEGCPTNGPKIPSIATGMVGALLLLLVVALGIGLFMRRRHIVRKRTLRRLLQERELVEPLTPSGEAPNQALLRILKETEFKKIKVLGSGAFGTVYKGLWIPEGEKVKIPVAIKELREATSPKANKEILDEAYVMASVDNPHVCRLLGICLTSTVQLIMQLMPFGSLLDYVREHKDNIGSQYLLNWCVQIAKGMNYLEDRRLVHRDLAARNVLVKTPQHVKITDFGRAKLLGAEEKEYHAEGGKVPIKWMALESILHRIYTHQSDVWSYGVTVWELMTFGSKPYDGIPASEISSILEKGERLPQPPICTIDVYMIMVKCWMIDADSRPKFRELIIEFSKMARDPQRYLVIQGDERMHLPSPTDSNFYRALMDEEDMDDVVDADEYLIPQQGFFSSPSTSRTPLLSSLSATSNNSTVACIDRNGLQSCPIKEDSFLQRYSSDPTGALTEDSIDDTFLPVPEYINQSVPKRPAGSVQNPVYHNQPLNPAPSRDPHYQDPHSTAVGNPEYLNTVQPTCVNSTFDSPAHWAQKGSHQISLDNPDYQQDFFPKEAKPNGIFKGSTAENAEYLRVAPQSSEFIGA

With `O=C(Nc1nccs1)C(c1ncn2c1C[C@@H](F)C2)n1cc2c(Cl)cc(-c3ccc(CCN4CCC(O)C4)cc3)c(Cl)c2n1` (mixture of isomers) [Example 70, rac-2-(4,7-Dichloro-6-(4-(2-(3-hydroxypyrrolidin-1-yl)ethyl)phenyl)-2H-indazol-2-yl) ((R)-6-fluoro-6,7-dihydro-5H-pyrrolo[1,2-c]imidazol-1-yl)-N-(thiazol-2-yl)acetamide] as the compound, how does the pIC50 read?
Its pIC50 is 8.10.

With `O=C(Nc1nccs1)C(c1ncn2c1C[C@@H](F)C2)n1cc2c(Cl)cc(-c3ccc(C4CC(CN5CCC(O)CC5)C4)cc3)c(Cl)c2n1` (mixture of isomers) [Example 76, rac-2-(4,7-Dichloro-6-(4-(34(4-hydroxypiperidin-1-yl)methyl)cyclobutyl)phenyl)-2H-indazol-2-yl)-2-((R)-6-fluoro-6,7-dihydro-5H-pyrrolo[1,2-c]imidazol-1-yl)-N-(thiazol-2-yl)acetamide] as the compound, how does the pIC50 read?
The pIC50 was 7.96.

How did the pIC50 turn out when `CCN1CCC(c2ccc(-c3cc(Cl)c4cn(C(C(=O)Nc5nccs5)c5ncn6c5C[C@@H](F)C6)nc4c3)cc2)CC1` (mixture of isomers) [Example 117, rac-2-(4-Chloro-6-(4-(1-ethylpiperidin-4-yl)phenyl)-2H-indazol-2-yl)-2-((R)-6-fluoro-6,7-dihydro-5H-pyrrolo[1,2-c]imidazol-1-yl)-N-(thiazol-2-yl)acetamide] was run?
The pIC50 was 8.05.

How did the pIC50 turn out when `O=C(Nc1nccs1)C(c1ncn2c1C[C@@H](F)C2)n1cc2c(Cl)cc(-c3ccc(OCCN4CCC(O)CC4)cc3)c(Cl)c2n1` (mixture of isomers) [Example 77, rac-2-(4,7-Dichloro-6-(4-(2-(4-hydroxypiperidin-1-yl)ethoxy)phenyl)-2H-indazol-2-yl)-2-((R)-6-fluoro-6,7-dihydro-5H-pyrrolo[1,2-c]imidazol-1-yl)-N-(thiazol-2-yl)acetamide] was run?
The pIC50 was 9.00.

`CC1(O)CCN(Cc2ccc(-c3cc(Cl)c4cn(C(C(=O)Nc5nccs5)c5ncn6c5C[C@@H](F)C6)nc4c3Cl)cc2)CC1` (mixture of isomers) [Example 97, rac-2-(4,7-Dichloro-6-(4-((4-hydroxy-4-methylpiperidin-1-yl)methyl)phenyl)-2H-indazol-2-yl)-2-((R)-6-fluoro-6,7-dihydro-5H-pyrrolo[1,2-c]imidazol-1-yl)-N-(thiazol-2-yl)acetamide] was tested. Which pIC50 did it give?
Its pIC50 is 8.30.

With `CN(Cc1ccc(-c2cc(Cl)c3cn(C(C(=O)Nc4nccs4)c4ncn5c4C[C@@H](F)C5)nc3c2Cl)cc1)C1CCCC(O)C1` (mixture of isomers) [Example 95, rac-2-(4,7-Dichloro-6-(4-(((3-hydroxycyclohexyl)(methyl)amino)methyl)phenyl)-2H-indazol-2-yl)-2-((R)-6-fluoro-6,7-dihydro-5H-pyrrolo[1,2-c]imidazol-1-yl)-N-(thiazolyl)acetamide] as the compound, how does the pIC50 read?
The pIC50 was 8.22.

With `CN(CCN1CC(O)C1)c1ccc(-c2cc(Cl)c3cn(C(C(=O)Nc4nccs4)c4ncn5c4C[C@@H](F)C5)nc3c2Cl)cc1` (stereo partly drawn) [Example 90] as the compound, how does the pIC50 read?
The pIC50 was 7.92.

With `O=C(Nc1nccs1)C(c1ncn2c1C[C@@H](F)C2)n1cc2c(Cl)cc(-c3ccc(N4CC5(CCNCC5)C4)cc3)c(Cl)c2n1` (stereo partly drawn) [Example 69, 2-(6-(4-(2,7-Diazaspiro[3.5]nonan-2-yl)phenyl)-4,7-dichloro-2H-indazol-2-yl)-2-((R)-6-fluoro-6,7-dihydro-5H-pyrrolo[1,2-c]imidazol-1-yl)-N-(thiazol-2-yl)acetamide] as the compound, how does the pIC50 read?
The pIC50 was 8.40.

With `CCN1CCC(c2ccc(-c3cc(Cl)c4cn(C(C(=O)Nc5nccs5)c5ncn6c5C[C@@H](F)C6)nc4c3Cl)cc2)CC1` (mixture of isomers) [Example 31, 2-[4,7-Dichloro-6-[4-(1-ethylpiperidin-4-yl)phenyl]indazol-2-yl]-2-[rac-(6R)-6-fluoro-6,7-dihydro-5H-pyrrolo[1,2-c]imidazol-1-yl]-N-(1,3-thiazol-2-yl)acetamide] as the compound, how does the pIC50 read?
Its pIC50 is 8.00.

`CCc1cc(-c2cc(Cl)c3cn(C(C(=O)Nc4nccs4)c4ncn5c4C[C@@H](F)C5)nc3c2Cl)ccc1OCCN(C)C` (stereo partly drawn) [Example 40, 2-(4,7-Dichloro-6-(4-(2-(dimethylamino)ethoxy)-3-ethylphenyl)-2H-indazol-2-yl)-2-((R)-6-fluoro-6,7-dihydro-5H-pyrrolo[1,2-c]imidazol-1-yl)-N-(thiazol-2-yl)acetamide] was tested. Which pIC50 did it give?
Its pIC50 is 8.10.

`O=C(Nc1nccs1)C(c1ncn2c1C[C@@H](F)C2)n1cc2c(Cl)cc(-c3ccc(C4CCN(C5CC(O)C5)CC4)cc3)c(Cl)c2n1` (mixture of isomers) [Example 87, rac-2-(4,7-Dichloro-6-(4-(1-(3-hydroxycyclobutyl)piperidin-4-yl)phenyl)-2H-indazol-2-yl)-2-((R)-6-fluoro-6,7-dihydro-5H-pyrrolo[1,2-c]imidazol-1-yl)-N-(thiazol-2-yl)acetamide] was tested. Which pIC50 did it give?
Its pIC50 is 8.05.

With `CN(C)Cc1ccc(-c2cc(Cl)c3cn(C(C(=O)Nc4nccs4)c4ncn5c4C[C@@H](F)C5)nc3c2Cl)cc1F` (mixture of isomers) [Example 49, rac-2-(4,7-Dichloro-6-(4-((dimethylamino)methyl)-3-fluorophenyl)-2H-indazol-2-yl)-2-((R)-6-fluoro-6,7-dihydro-5H-pyrrolo[1,2-c]imidazol-1-yl)-N-(thiazol-2-yl)acetamide] as the compound, how does the pIC50 read?
The pIC50 was 8.10.

With `CCN1CC[C@@H](c2ccc(-c3cc(C)c4cn(C(C(=O)Nc5nccs5)c5ncn6c5C[C@@H](F)C6)nc4c3C)cc2)[C@H](F)C1` (single isomer, unassigned) [Example 119] as the compound, how does the pIC50 read?
Its pIC50 is 7.85.

With `O=C(Nc1nccs1)C(c1ncn2c1CCC2)n1cc2c(Cl)cc(-c3ccc(C4CCN(CCF)CC4)cc3)c(Cl)c2n1` (stereo not drawn) [Example 103, 2-(4,7-Dichloro-6-(4-(1-(2-fluoroethyl)piperidin-4-yl)phenyl)-2H-indazol-2-yl)-2-(6,7-dihydro-5H-pyrrolo[1,2-c]imidazol-1-yl)-N-(thiazol-2-yl)acetamide] as the compound, how does the pIC50 read?
Its pIC50 is 7.70.

How did the pIC50 turn out when `Cc1cc(-c2ccc(N3CCOCC3)nc2)c(C)c2nn(C(C(=O)Nc3nccs3)c3ncn4c3C[C@@H](F)C4)cc12` (stereo partly drawn) [Example 124, 2-(4,7-Dimethyl-6-(6-morpholinopyridin-3-yl)-2H-indazol-2-yl)-2-((R)-6-fluoro-6,7-dihydro-5H-pyrrolo[1,2-c]imidazol-1-yl)-N-(thiazol-2-yl)acetamide] was run?
Its pIC50 is 8.30.

How did the pIC50 turn out when `O=C(Nc1nccs1)C(c1ncn2c1C[C@@H](F)C2)n1cc2c(Cl)cc(-c3ccc(N4CCC(CN5CCC(O)C5)CC4)cc3)c(Cl)c2n1` (mixture of isomers) [Example 74, rac-2-(4,7-Dichloro-6-(4-(4-((3-hydroxypyrrolidin-1-yl)methyl)piperidin-1-yl)phenyl)-2H-indazol-2-yl)-2-((R)-6-fluoro-6,7-dihydro-5H-pyrrolo[1,2-c]imidazol-1-yl)-N-(thiazol-2-yl)acetamide] was run?
The pIC50 was 7.92.

`O=C(Nc1nccs1)C(c1ncn2c1C[C@@H](F)C2)n1cc2c(Cl)cc(-c3ccc(N4CCN5CCC4C5)cc3)c(Cl)c2n1` (mixture of isomers) [Example 72, rac-2-(6-(4-(1,4-Diazabicyclo[3.2.1]octan-4-yl)phenyl)-4,7-dichloro-2H-indazol-2-yl)-2-((R)-6-fluoro-6,7-dihydro-5H-pyrrolo[1,2-c]imidazol-1-yl)-N-(thiazol-2-yl)acetamide] was tested. Which pIC50 did it give?
Its pIC50 is 8.30.

With `Cc1cc(-c2ccc(N3CCOCC3)cc2)c(Cl)c2nn(C(C(=O)Nc3nccs3)c3ncn4c3CCC4)cc12` (stereo not drawn) [Example 126, 2-(7-Chloro-4-methyl-6-(4-morpholinophenyl)-2H-indazol-2-yl)-2-(6,7-dihydro-5H-pyrrolo[1,2-c]imidazol-1-yl)-N-(thiazol-2-yl)acetamide] as the compound, how does the pIC50 read?
The pIC50 was 8.05.

With `O=C(Nc1nccs1)C(c1ncn2c1C[C@@H](F)C2)n1cc2c(Cl)cc(-c3ccc(N4CCOCC4)nc3)c(Cl)c2n1` (mixture of isomers) [Example 29, 2-[4,7-Dichloro-6-(6-morpholin-4-ylpyridin-3-yl)indazol-2-yl]-2-[rac-(6R)-6-fluoro-6,7-dihydro-5H-pyrrolo[1,2-c]imidazol-1-yl]-N-(1,3-thiazol-2-yl)acetamide] as the compound, how does the pIC50 read?
Its pIC50 is 8.22.

How did the pIC50 turn out when `Cc1cc(-c2ccc(C3CCN(CC(C)F)CC3)cc2)c(Cl)c2nn(C(C(=O)Nc3nccs3)c3ncn4c3C[C@@H](F)C4)cc12` (mixture of isomers) [Example 131, rac-2-(7-Chloro-6-(4-(1-(2-fluoropropyl)piperidin-4-yl)phenyl)-4-methyl-2H-indazol-2-yl)-2-((R)-6-fluoro-6,7-dihydro-5H-pyrrolo[1,2-c]imidazol-1-yl)-N-(thiazol-2-yl)acetamide] was run?
The pIC50 was 6.72.

With `Cc1cc(-c2ccc(N3CCOCC3)cc2)c(C)c2nn(C(C(=O)Nc3nccs3)c3ncn4c3C[C@@H](F)C4)cc12` (stereo partly drawn) [Example 118, 2-(4,7-Dimethyl-6-(4-morpholinophenyl)-2H-indazol-2-yl)-2-((R)-6-fluoro-6,7-dihydro-5H-pyrrolo[1,2-c]imidazol-1-yl)-N-(thiazol-2-yl)acetamide] as the compound, how does the pIC50 read?
Its pIC50 is 8.15.

With `CN1CCN(Cc2ccc(-c3cc(Cl)c4cn(C(C(=O)Nc5nccs5)c5ncn6c5C[C@@H](F)C6)nc4c3Cl)cc2)CC1` (mixture of isomers) [Example 96, rac-2-(4,7-Dichloro-6-(4-((4-methylpiperazin-1-yl)methyl)phenyl)-2H-indazol-2-yl)-2-((R)-6-fluoro-6,7-dihydro-5H-pyrrolo[1,2-c]imidazol-1-yl)-N-(thiazol-2-yl)acetamide] as the compound, how does the pIC50 read?
Its pIC50 is 8.22.

`CCN1CC(c2ccc(-c3cc(Cl)c4cn(C(C(=O)Nc5nccs5)c5ncn6c5C[C@@H](F)C6)nc4c3Cl)cc2)C1` (stereo partly drawn) [Example 83, 2-(4,7-Dichloro-6-(4-(1-ethylazetidin-3-yl)phenyl)-2H-indazol-2-yl)-2-((R)-6-fluoro-6,7-dihydro-5H-pyrrolo[1,2-c]imidazol-1-yl)-N-(thiazol-2-yl)acetamide] was tested. Which pIC50 did it give?
Its pIC50 is 8.00.

With `COCCN1CCC(c2ccc(-c3cc(C)c4cn(C(C(=O)Nc5nccs5)c5ncn6c5C[C@@H](F)C6)nc4c3Cl)cc2)CC1` (stereo partly drawn) [Example 130, 2-(7-Chloro-6-(4-(1-(2-methoxyethyl)piperidin-4-yl)phenyl)-4-methyl-2H-indazol-2-yl)-2-((R)-6-fluoro-6,7-dihydro-5H-pyrrolo[1,2-c]imidazol-1-yl)-N-(thiazol-2-yl)acetamide] as the compound, how does the pIC50 read?
The pIC50 was 7.92.
